Measurements from ChEMBL document CHEMBL4400520, “Benzofuran-isatin-imine hybrids tethered via different length alkyl linkers: Design, synthesis and in vitro evaluation of anti-tubercular and anti-bacterial activities as well as cytotoxicity” (Eur J Med Chem, 2019).
≈ marks a conversion by molar mass, not a printed value.

Assays:
[1] = tested on: Mycobacterium tuberculosis; test: Antitubercular activity against Mycobacterium tuberculosis H37Rv; type: functional
[2] = (§1) Cytotoxicity against African green monkey Vero cells assessed as reduction in cell viability after 72 hrs by MTT assay; type: cell-based; details: chlorocebus sabaeus, Vero cells
[3] = Selectivity index, ratio of CC50 for African green monkey Vero cells to MIC for Mycobacterium tuberculosis H37Rv; type: toxicity; details: read-out: Selectivity Index
[4] = tested on: Staphylococcus epidermidis; test: Antibacterial activity against methicillin-sensitive Staphylococcus epidermidis; type: functional
[5] = tested on: Staphylococcus epidermidis; test: Antibacterial activity against methicillin-resistant Staphylococcus epidermidis; type: functional
Staphylococcus aureus [6] = test: Antibacterial activity against methicillin-sensitive Staphylococcus aureus; type: functional
Staphylococcus aureus [7] = test: Antibacterial activity against methicillin-resistant Staphylococcus aureus; type: functional
Enterococcus faecalis = test: Antibacterial activity against Enterococcus faecalis; type: functional
Enterococcus faecium = test: Antibacterial activity against Enterococcus faecium; type: functional
Escherichia coli = test: Antibacterial activity against Escherichia coli; type: functional
Klebsiella pneumoniae = test: Antibacterial activity against Klebsiella pneumoniae; type: functional
Pseudomonas aeruginosa = test: Antibacterial activity against Pseudomonas aeruginosa ATCC 27853; type: functional
[8] = tested on: Acinetobacter calcoaceticus; test: Antibacterial activity against Acinetobacter calcoaceticus; type: functional
Enterobacter cloacae = test: Antibacterial activity against Enterobacter cloacae; type: functional
Klebsiella aerogenes = test: Antibacterial activity against Enterobacter aerogenes; type: functional
Proteus mirabilis = test: Antibacterial activity against Proteus mirabilis; type: functional
Citrobacter freundii = test: Antibacterial activity against Citrobacter freundii; type: functional
Vero = test: as §1; type: cell-based; details: chlorocebus sabaeus, vero, 72 h
[9] = Cmax in ICR mouse at 25 mg/kg, po; type: ADME, organism-based; set-up: dose 25 mg/kg, route oral; details: in vivo
[10] = Half life in ICR mouse at 25 mg/kg, po; type: ADME, organism-based; details: in vivo
[11] = Tmax in ICR mouse at 25 mg/kg, po; type: ADME, organism-based; details: in vivo
[12] = AUC (0 to infinity) in ICR mouse at 25 mg/kg, po; type: ADME, organism-based; set-up: dose 25 mg/kg, time infinity, route oral; details: in vivo
[13] = Metabolic stability in mouse assessed as half life; type: ADME

SMILES | MIC [1] | CC50 at 72 h [2] | selectivity ratio [3] | MIC90 [4] | MIC90 [5] | MIC90 (Staphylococcus aureus [6]) | MIC90 (Staphylococcus aureus [7]) | MIC90 (Enterococcus faecalis) | MIC90 (Enterococcus faecium) | MIC90 (Escherichia coli) | MIC90 (Klebsiella pneumoniae) | MIC90 (Pseudomonas aeruginosa) | MIC90 [8] | MIC90 (Enterobacter cloacae) | MIC90 (Klebsiella aerogenes) | MIC90 (Proteus mirabilis) | MIC90 (Citrobacter freundii) | other results
CCOC(=O)c1c(-c2ccccc2)oc2ccc(OCCCN3C(=O)/C(=N\OC)c4cc(OC)ccc43)cc12 | < 0.016 µg/mL | 64 µg/mL (≈ 121 µM) | > 4000 | 0.5 µg/mL (≈ 0.946 µM) | 0.5 µg/mL (≈ 0.946 µM) | 1 µg/mL (≈ 1.89 µM) | 4 µg/mL (≈ 7.57 µM) | 1 µg/mL (≈ 1.89 µM) | 16 µg/mL (≈ 30.3 µM) | 0.125 µg/mL (≈ 0.236 µM) | 0.5 µg/mL (≈ 0.946 µM) | 1 µg/mL (≈ 1.89 µM) | 2 µg/mL (≈ 3.78 µM) | 0.5 µg/mL (≈ 0.946 µM) | 2 µg/mL (≈ 3.78 µM) | 2 µg/mL (≈ 3.78 µM) | 0.5 µg/mL (≈ 0.946 µM) | 
CCO/N=C1\C(=O)N(CCCCOc2ccc3oc(-c4ccc(OC)cc4)c(C(=O)OCC)c3c2)c2ccc(F)cc21 | 0.156 µg/mL (≈ 0.271 µM) |  | 410 | 1 µg/mL (≈ 1.74 µM) | 16 µg/mL (≈ 27.8 µM) | 8 µg/mL (≈ 13.9 µM) | 4 µg/mL (≈ 6.96 µM) | 4 µg/mL (≈ 6.96 µM) | 32 µg/mL (≈ 55.7 µM) | 0.5 µg/mL (≈ 0.87 µM) | 2 µg/mL (≈ 3.48 µM) | 8 µg/mL (≈ 13.9 µM) | 8 µg/mL (≈ 13.9 µM) | 0.25 µg/mL (≈ 0.435 µM) | 0.5 µg/mL (≈ 0.87 µM) | 0.25 µg/mL (≈ 0.435 µM) | 0.5 µg/mL (≈ 0.87 µM) | CC50 (Vero): 32 µg/mL (≈ 55.7 µM)
CCOC(=O)c1c(-c2ccc(F)cc2)oc2ccc(OCCCCCCN3C(=O)C(=O)c4cc(F)ccc43)cc12 | < 0.016 µg/mL | 512 µg/mL (≈ 935 µM) | > 32000 | 1 µg/mL (≈ 1.83 µM) | 4 µg/mL (≈ 7.31 µM) | 1 µg/mL (≈ 1.83 µM) | 2 µg/mL (≈ 3.65 µM) | 2 µg/mL (≈ 3.65 µM) | 16 µg/mL (≈ 29.2 µM) | 0.25 µg/mL (≈ 0.457 µM) | 1 µg/mL (≈ 1.83 µM) | 2 µg/mL (≈ 3.65 µM) | 4 µg/mL (≈ 7.31 µM) | 0.5 µg/mL (≈ 0.913 µM) | 0.125 µg/mL (≈ 0.228 µM) | 0.06 µg/mL (≈ 0.11 µM) | 0.06 µg/mL (≈ 0.11 µM) | 
CNC(=O)c1c(-c2ccc(O)cc2)oc2ccc(O)c(CN3CCCCC3)c12 | < 0.016 µg/mL | > 1020 µg/mL | > 64000 |  |  |  |  |  |  |  |  |  |  |  |  |  |  | Cmax [9]: 5060 ng/mL; half-life [10]: 9.88 h; Tmax [11]: 3.46 h; AUC(0-inf) [12]: 39300 ng·h/mL; half-life [13]: > 1 h
CCOC(=O)c1c(-c2ccc(OC)cc2)oc2ccc(OCCCCCN3C(=O)C(=O)c4cc(F)ccc43)cc12 | 0.064 µg/mL (≈ 0.117 µM) | 512 µg/mL (≈ 938 µM) | 8000 | 1 µg/mL (≈ 1.83 µM) | 8 µg/mL (≈ 14.7 µM) | 2 µg/mL (≈ 3.67 µM) | 2 µg/mL (≈ 3.67 µM) | 4 µg/mL (≈ 7.33 µM) | 64 µg/mL (≈ 117 µM) | 0.25 µg/mL (≈ 0.458 µM) | 2 µg/mL (≈ 3.67 µM) | 8 µg/mL (≈ 14.7 µM) | 8 µg/mL (≈ 14.7 µM) | 1 µg/mL (≈ 1.83 µM) | 1 µg/mL (≈ 1.83 µM) | 0.25 µg/mL (≈ 0.458 µM) | 1 µg/mL (≈ 1.83 µM) | 
CCOC(=O)c1c(-c2ccc(OC)cc2)oc2ccc(OCCCN3C(=O)/C(=N\OC)c4cc(OC)ccc43)cc12 | < 0.016 µg/mL | 128 µg/mL (≈ 229 µM) | > 8000 | 0.25 µg/mL (≈ 0.448 µM) | 2 µg/mL (≈ 3.58 µM) | 4 µg/mL (≈ 7.16 µM) | 2 µg/mL (≈ 3.58 µM) | 1 µg/mL (≈ 1.79 µM) | 8 µg/mL (≈ 14.3 µM) | 0.25 µg/mL (≈ 0.448 µM) | 1 µg/mL (≈ 1.79 µM) | 1 µg/mL (≈ 1.79 µM) | 4 µg/mL (≈ 7.16 µM) | 0.25 µg/mL (≈ 0.448 µM) | 0.125 µg/mL (≈ 0.224 µM) | 0.25 µg/mL (≈ 0.448 µM) | 0.5 µg/mL (≈ 0.895 µM) | 
CCOC(=O)c1c(-c2ccc(OC)cc2)oc2ccc(OCCCCN3C(=O)/C(=N\OC)c4cc(F)ccc43)cc12 | 0.031 µg/mL (≈ 0.0553 µM) | 32 µg/mL (≈ 57.1 µM) | 1030 | 0.5 µg/mL (≈ 0.892 µM) | 2 µg/mL (≈ 3.57 µM) | 1 µg/mL (≈ 1.78 µM) | 4 µg/mL (≈ 7.14 µM) | 2 µg/mL (≈ 3.57 µM) | 16 µg/mL (≈ 28.5 µM) | 0.25 µg/mL (≈ 0.446 µM) | 2 µg/mL (≈ 3.57 µM) | 8 µg/mL (≈ 14.3 µM) | 4 µg/mL (≈ 7.14 µM) | 0.5 µg/mL (≈ 0.892 µM) | 0.5 µg/mL (≈ 0.892 µM) | 0.25 µg/mL (≈ 0.446 µM) | 0.25 µg/mL (≈ 0.446 µM) | 
CCOC(=O)c1c(-c2ccc(OC)cc2)oc2ccc(OCCCCCCN3C(=O)C(=O)c4ccccc43)cc12 | 0.062 µg/mL (≈ 0.114 µM) | 256 µg/mL (≈ 473 µM) | 4130 | 0.25 µg/mL (≈ 0.462 µM) | 4 µg/mL (≈ 7.39 µM) | 1 µg/mL (≈ 1.85 µM) | 1 µg/mL (≈ 1.85 µM) | 2 µg/mL (≈ 3.69 µM) | 8 µg/mL (≈ 14.8 µM) | 0.06 µg/mL (≈ 0.111 µM) | 0.5 µg/mL (≈ 0.923 µM) | 4 µg/mL (≈ 7.39 µM) | 2 µg/mL (≈ 3.69 µM) | 0.125 µg/mL (≈ 0.231 µM) | 0.5 µg/mL (≈ 0.923 µM) | 0.125 µg/mL (≈ 0.231 µM) | 0.25 µg/mL (≈ 0.462 µM) | 
CCOC(=O)c1c(-c2ccc(OC)cc2)oc2ccc(OCCCCCCN3C(=O)C(=O)c4cc(F)ccc43)cc12 | < 0.016 µg/mL | 1020 µg/mL (≈ 1830 µM) | > 64000 | 1 µg/mL (≈ 1.79 µM) | 8 µg/mL (≈ 14.3 µM) | 2 µg/mL (≈ 3.57 µM) | 2 µg/mL (≈ 3.57 µM) | 2 µg/mL (≈ 3.57 µM) | 16 µg/mL (≈ 28.6 µM) | 0.125 µg/mL (≈ 0.223 µM) | 1 µg/mL (≈ 1.79 µM) | 4 µg/mL (≈ 7.15 µM) | 4 µg/mL (≈ 7.15 µM) | 0.5 µg/mL (≈ 0.894 µM) | 0.25 µg/mL (≈ 0.447 µM) | 0.125 µg/mL (≈ 0.223 µM) | 1 µg/mL (≈ 1.79 µM) | 
CCOC(=O)c1c(-c2ccccc2)oc2ccc(OCCCCN3C(=O)/C(=N\OC)c4cc(F)ccc43)cc12 | 0.062 µg/mL (≈ 0.117 µM) |  | 516 | 0.25 µg/mL (≈ 0.471 µM) | 1 µg/mL (≈ 1.88 µM) | 1 µg/mL (≈ 1.88 µM) | 2 µg/mL (≈ 3.77 µM) | 2 µg/mL (≈ 3.77 µM) | 8 µg/mL (≈ 15.1 µM) | 0.125 µg/mL (≈ 0.236 µM) | 0.25 µg/mL (≈ 0.471 µM) | 0.5 µg/mL (≈ 0.942 µM) | 1 µg/mL (≈ 1.88 µM) | 1 µg/mL (≈ 1.88 µM) | 0.125 µg/mL (≈ 0.236 µM) | 0.25 µg/mL (≈ 0.471 µM) | 0.25 µg/mL (≈ 0.471 µM) | CC50 (Vero): 64 µg/mL (≈ 121 µM)
CCOC(=O)c1c(-c2ccc(OC)cc2)oc2ccc(OCCCCN3C(=O)/C(=N\OC)c4ccccc43)cc12 | < 0.016 µg/mL | 32 µg/mL (≈ 59 µM) | > 2000 | 0.125 µg/mL (≈ 0.23 µM) | 0.5 µg/mL (≈ 0.922 µM) | 1 µg/mL (≈ 1.84 µM) | 1 µg/mL (≈ 1.84 µM) | 1 µg/mL (≈ 1.84 µM) | 8 µg/mL (≈ 14.7 µM) | 0.5 µg/mL (≈ 0.922 µM) | 0.25 µg/mL (≈ 0.461 µM) | 4 µg/mL (≈ 7.37 µM) | 1 µg/mL (≈ 1.84 µM) | 0.25 µg/mL (≈ 0.461 µM) | 0.06 µg/mL (≈ 0.111 µM) | 0.125 µg/mL (≈ 0.23 µM) | 0.25 µg/mL (≈ 0.461 µM) | Cmax [9]: 927 ng/mL; half-life [10]: 3.33 h; Tmax [11]: 1.65 h; AUC(0-inf) [12]: 3020 ng·h/mL; half-life [13]: 0.32 h
O=C(O)c1cn(C2CC2)c2cc(N3CCNCC3)c(F)cc2c1=O [CIPROFLOXACIN] | 0.291 µg/mL (≈ 0.878 µM) | 512 µg/mL (≈ 1550 µM) |  | 0.125 µg/mL (≈ 0.377 µM) | 4 µg/mL (≈ 12.1 µM) | 0.25 µg/mL (≈ 0.754 µM) | 0.25 µg/mL (≈ 0.754 µM) | 0.5 µg/mL (≈ 1.51 µM) | 8 µg/mL (≈ 24.1 µM) | 0.06 µg/mL (≈ 0.181 µM) | 0.5 µg/mL (≈ 1.51 µM) | 0.25 µg/mL (≈ 0.754 µM) | 0.5 µg/mL (≈ 1.51 µM) |  | 0.06 µg/mL (≈ 0.181 µM) | ≤ 0.03 µg/mL | 0.03 µg/mL (≈ 0.0905 µM) | Cmax [9]: 3130 ng/mL; Tmax [11]: 1.8 h; AUC(0-inf) [12]: 17800 ng·h/mL
